In patent US9956293B2, “Targeted therapeutics” (Madrigal Pharmaceuticals, Inc., priority 2014, dated 2018):
One block for each molecule: values may come before it.

How the values were obtained:
[1] = Artificial membrane permeability assay (PAMPA) (Example 36); type: in vitro ADME
[2] = Stability in human plasma (Example 5); type: in vitro ADME
Method: (§1) This example illustrates a method for assessing the stability of SDC-TRAP of the invention in human and mouse plasma.
(§2) SDC-TRAP-0022 and SDC-TRAP-0028 were incubated in human and mouse plasma for 2 h at 37° C. and assayed for integrity at 0.25, 0.5, 1 and 2 h. The values reported below are the remaining of the parent compound at the end of the 2 h incubation period.

[3] = Stability in mouse plasma (Example 5); type: in vitro ADME
Method: as §1, §2

HER2 [4] = assay: HER2 degradation assay with BT-474 cell line (Example 12, FACS); type: cell-based; details: Homo sapiens
HER2 [5] = assay: HER2 degradation in BT-474 cells (Example 3, Western blot / in-cell imaging); type: cell-based, human; details: Homo sapiens
[6] = mouse, in vivo
[7] = test system: MCF-7 breast cancer cells; assay: Mouse xenograft efficacy in an MCF-7 breast cancer model; type: in vivo; details: 150 or 100 mg/kg/1×wk; FIG. 8
Method: Mouse Xenograft Efficacy Data in an MCF-7 Breast Cancer Model
MCF-7 breast cancer cells were purchased from ATCC. […] Fetal bovine serum was then added to the medium. The final concentration of fetal bovine serum was 10%. Cells were cultured at 37° C. and 5% CO2.
Mice that were not put on treatment were euthanized. Animals were sourced through CRL (Wilmington, Mass.).

in vivo = details: mouse
[8] = Mouse plasma stability (Examples 16-18); type: in vitro ADME
[9] = test system: human urinary bladder cancer cell line SW780; assay: Cytotoxicity assay with cancer cell lines, SW780 (Example 13); type: cell-based; details: SW780, 72 h, read-out: Cytotoxicity (IC50, nM) SW-780
[10] = test system: human urinary bladder cancer cell line RT-112; assay: Cytotoxicity assay with cancer cell lines, RT-112 (Example 13); type: cell-based; details: RT-112, 72 h, read-out: Cytotoxicity (IC50, nM) RT-112
[11] = test system: human breast cancer cell line BT-474; assay: Cytotoxicity assay with cancer cell lines, BT-474 (Example 13); type: cell-based; details: BT-474, 72 h, read-out: Cytotoxicity (IC50, nM) BT-474
[12] = Stability in cell culture media (Example 18); type: in vitro ADME
Method: SDC-TRAP Stability in Mouse Plasma and Cell Culture Media
Mouse plasma samples were prepared according to Example 16.

[13] = Tissue distribution of ganetespib in female CD-1 nu/nu mice bearing RERF human NSCLC xenografts; type: in vivo, mouse; details: 24 hr after 50 mg/kg IV
Text: Tissue distribution of ganetespib in female CD-1 nu/nu mice bearing RERF human NSCLC xenografts
To confirm the distribution of ganetespib in blood, livers, kidneys, brains, hearts, lungs and tumors after IV administration of ganetespib to female CD-1 nu/nu mice bearing RERF human NSCLC xenografts, and to examine metabolic profiles of ganetespib in plasma, red blood cells, and above tissues.
Animals: female CD-1 nu/nu mice bearing RERF human NSCLC xenografts (N=3/group)
Formulation: 10% DMSO, 18% Cremophor RH40, 3.6% dextrose solution (DRD)
Bleeding time points: 5 min, 6, 24 hr
Collected tissues: blood (plasma and red blood cells (RBC)), liver, kidneys, brain, heart, lung, tumor
Protein precipitation: 50 μL of 10 times diluted plasma or RBC+150 μL ACN (10 mM NH4OAc), vortexed and centrifuged at 10000 rpm for 8 min; 150 μL supernatant+150 μL water (10 mM NH4OAc)
Protein precipitation: 100 μL homogenized tissue (1:3 tissue: PBS buffer)+100 μL ACN (10 mM NH4OAc), vortexed and centrifuged at 10000 rpm for 8 min Bioanalysis

[14] = BT-474 cells, read-out: HER2 (IC50)

Structure (SMILES): CCc1c2c(nc3ccc(OC(=O)N(C)CCn4ccc5cc(-n6c(O)nnc6-c6cc(C(C)C)c(O)cc6O)ccc54)cc13)-c1cc3c(c(=O)n1C2)COC(=O)C3(O)CC (stereo not drawn) [SDC-TRAP-0022, 4,11-diethyl-4-hydroxy-3,14-dioxo-3,4,12,14-tetrahydro-1H-pyrano[3′,4′:6,7]indolizino[1,2-b]quinolin-9-yl (2-(5-(3-(2,4-dihydroxy-5-isopropylphenyl)-5-hydroxy-4H-1,2,4-triazol-4-yl)-1H-indol-1-yl)ethyl)(methyl)carbamate]
% Remaining 2 h (37° C.) HU ([2]; human plasma, 1 μM): 29% | % Remaining 2 h (37° C.) HU ([2]; human plasma, 10 μM): 30% | % Remaining 2 h (37° C.) MO ([3]; mouse plasma, 1 μM): 32% | % Remaining 2 h (37° C.) MO ([3]; mouse plasma, 10 μM): 31%

Structure (SMILES): CCc1c2c(nc3ccc(OCC(=O)N(C)CCOCCn4ccc5cc(-n6c(O)nnc6-c6cc(C(C)C)c(O)cc6O)ccc54)cc13)-c1cc3c(c(=O)n1C2)COC(=O)C3(O)CC (stereo not drawn) [SDC-TRAP-0028, 2-((4,11-diethyl-4-hydroxy-3,14-dioxo-3,4,12,14-tetrahydro-1H-pyrano[3′,4′:6,7]indolizino[12-b]quinolin-9-yl)oxy)-N-(2-(2-(5-(3-(2,4-dihydroxy-5-isopropylphenyl)-5-hydroxy-4H-1,2,4-triazol-4-yl)-1H-indol-1-yl)ethoxy)ethyl)-N-methylacetamide]
% Remaining 2 h (37° C.) HU ([2]; human, plasma, 2 h, 1 μM): 51% | % Remaining 2 h (37° C.) HU ([2]; human, plasma, 2 h, 10 μM): 65% | IC50 (HER2 [4]; BT-474, SDC-TRAPs of the 43rd table): > 5000 nM | % Remaining 2 h (37° C.) MO ([3]; mouse, plasma, 2 h, 1 μM): 53% | % Remaining 2 h (37° C.) MO ([3]; mouse, plasma, 2 h, 10 μM): 47% | IC50 (HER2 [5]; [14]): > 5000 nM

Structure (SMILES): CCc1c2c(cc3ccc(O)cc13)-c1cc3c(c(=O)n1C2)COC(=O)[C@]3(O)CC [SN-38]
Mouse (10 μM) % Remaining 1 h (37° C.)* [8]: 64% | IC50 [9]: 38 nM | IC50 [10]: < 10 nM | IC50 [11]: > 10000 nM | Kp at 1 h (in vivo; Tumor/Plasma Ratio): 0.07 | Kp at […] (in vivo; Tumor/Plasma Ratio): 0.01 | Media (5 μM) % Remaining 1 h (37° C.)* ([12]; 1 h): 82% | Media (5 μM) % Remaining 19 h (37° C.) ([12]; 19 h): 52% | Mass Retention ([1]; incubation 5 h, the 55th table): 38.2% | Papp at 5 h ([1]; incubation 5 h, the 55th table): 0.643 ×10⁻⁶ cm/s | Mass Retention ([1]; same protocol, the 56th table): 46.6% | Papp at 5 h ([1]; same protocol, the 56th table): 1.87 ×10⁻⁶ cm/s

Structure (SMILES): CC(C)c1cc(-c2n[nH]c(=O)n2-c2ccc3c(ccn3C)c2)c(O)cc1O [ganetespib, reference compound]
Concentration of ganetespib in plasma [13]: <LLOQ | IC50 (HER2 [5]; BT-474, read-out: IC50 of in vitro HER2 assays): ~30 nM

The next lines start with results.

Papp at 5 h ([1]; incubation 5 h, the 55th table): 0.021 ×10⁻⁶ cm/s
Structure (SMILES): CC(C)c1cc(-c2nnc(O)n2-c2ccc3c(ccn3CCNC(=O)CCCC[C@@H]3SCC4NC(=O)NC43)c2)c(O)cc1O (stereo in doubt) [SDC-TRAP-0233, N-(2-(5-(3-(2,4-dihydroxy-5-isopropylphenyl)-5-hydroxy-4H-1,2,4-triazol-4-yl)-1H-indol-1-yl)ethyl)-5-((3 aS,4S,6aR)-2-oxohexahydro-1H-thieno[3,4-d]imidazol-4-yl)pentanamide]

IC50 (HER2 [4]; BT-474 cells): > 10000 nM | IC50 (HER2 [5]; [14]): > 5000 nM
Structure (SMILES): CC(C)c1cc(-c2nnc(O)n2-c2ccc(CN3CCN(C(=O)CCCC(=O)Nc4cccc5c4CN(C4CCC(=O)NC4=O)C5=O)CC3)cc2)c(O)cc1O (stereo not drawn) [SDC-TRAP-0041, 5-(4-(4-(3-(2,4-dihydroxy-5-isopropylphenyl)-5-hydroxy-4H-1,2,4-triazol-4-yl)benzyl)piperazin-1-yl)-N-(2-(2,6-dioxopiperidin-3-yl)-1-oxoisoindolin-4-yl)-5-oxopentanamide]

concentration at 6 h (in vivo; Plasma Conc.): 1690 nM | concentration at 24 h (in vivo; Plasma Conc.): 6.75 nM | Kp at 6 h (in vivo; Tumor/Plasma Ratio): 0.958 | Kp at 24 h (in vivo; Tumor/Plasma Ratio): 30.1 | Kp at […] (in vivo; Tumor/Plasma Ratio): 0.0122
Structure (SMILES): CCc1c2c(nc3ccc(OC(=O)N4CCC(CCn5ccc6cc(-n7c(O)nnc7-c7cc(C(C)C)c(O)cc7O)ccc65)CC4)cc13)-c1cc3c(c(=O)n1C2)COC(=O)[C@]3(O)CC [SDC-TRAP-0063, 4,11-diethyl-4-hydroxy-3,14-dioxo-3,4,12,14-tetrahydro-1H-pyrano[3′,4′:6,7]indolizino[1,2-b]quinolin-9-yl 4-(2-(5-(3-(2,4-dihydroxy-5-isopropylphenyl)-5-hydroxy-4H-1,2,4-triazol-4-yl)-1H-indol-1-yl)ethyl)piperidine-1-carboxylate]
tumor targeting (tissue distribution, in words) [6]: selectively targets and accumulates in tumor cells | tumor growth suppression (tumor volume) [7]: greater tumor growth suppression than effector moiety irinotecan alone

Mass Retention ([1]; incubation 5 h, the 55th table): 9.56% | Papp at 5 h ([1]; incubation 5 h, the 55th table): 0.0123 ×10⁻⁶ cm/s
Structure (SMILES): CC(C)c1cc(-c2nnc(O)n2-c2ccc3c(ccn3CCNC(=O)CCCCCNC(=O)CCCC[C@H]3SC[C@H]4NC(=O)N[C@H]43)c2)c(O)cc1O [SDC-TRAP-0234, N-(2-(5-(3-(2,4-dihydroxy-5-isopropylphenyl)-5-hydroxy-4H-1,2,4-triazol-4-yl)-1H-indol-1-yl)ethyl)-6-(5-((3aR,4R,6aS)-2-oxohexahydro-1H-thieno[3,4-d]imidazol-4-yl)pentanamido)hexanamide]
